Reference: paper PMC12073785, “Design, Synthesis and Biological Evaluation of 3-Hydrazonoindolin-2-one Derivatives as Novel HIV-1 RNase H Inhibitors” (Molecules, 2025)

Experiments:
[1] = tested on: HIV-1 (strain IIIB); test: Anti-HIV-1 (strain IIIB) activity in MT-4 cells, MTT assay; format: cell-based; conditions: protection of MT-4 cells against HIV-induced cytopathogenicity by 50%
Procedure: (§1) The anti-HIV-1 (strain IIIB) activity evaluation in MT-4 cells was conducted using an optimized MTT assay. The cell lines were obtained from the laboratory (Prof. Erik De Clercq, Rega Institute for Medical Research, KU Leuven, Herestraat 49, Leuven, Belgium). Compounds were serially diluted (5-fold increments, starting from 10× concentration) and dispensed into 96-well plates (25 µL/well) via an automated Biomek 3000 workstation (Beckman Instruments, Fullerton, CA, USA). Parallel experimental groups included virus-infected (50 µL HIV inoculum, 100–300 TCID50) and mock-infected controls (50 µL culture medium). MT-4 cells were centrifuged (220× g, 5 min), resuspended to 6 × 10⁵ cells/mL, and seeded (50 µL/well). After a 5-day incubation, cell viability was quantified by measuring mitochondrial dehydrogenase-mediated MTT-to-formazan conversion using dual-wavelength spectrophotometry (540 nm primary, 690 nm reference). The 50% cytotoxic concentration (CC50) was calculated from triplicate median absorbance values, representing the compound concentration reducing mock-infected cell viability by 50%.

[2] = tested on: MT-4 cells; test: Cytotoxicity in mock-infected MT-4 cells, MTT assay; format: cell-based
Procedure: as §1

| EC50 [1] [nM] | SMILES | CC50 [2] [nM] |
| --- | --- | --- |
| 3 | O=C1Nc2ccc(Cl)cc2[C@@](C#CC2CC2)(C(F)(F)F)O1 [EFV, reference compound] | > 4590 |
| 190 | Cc1ccnc2c1NC(=O)c1cccnc1N2C1CC1 [NVP, reference compound] | > 15000 |
